#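 Grown in 96-well plates, cells were treated for 48 hours with each compound at five concentrations. Insufficient inhibition: endpoint recorded as highest concentration tested. TGI marks complete inhibition of growth.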
# Key:
# Experiment in all cases: NCI tumour cell line growth inhibition, 48 h
# 786-0 renal = system: 786-0 renal
# A549 NSCLC = system: A549 NSCLC
# ACHN renal = system: ACHN renal
# BT-549 breast = system: BT-549 breast
# CAKI-1 renal = system: CAKI-1 renal
# CCRF-CEM leukemia = system: CCRF-CEM leukemia
# DU-145 prostate = system: DU-145 prostate
# EKVX NSCLC = system: EKVX NSCLC
# HCC-2998 colon = system: HCC-2998 colon
# HCT-116 colon = system: HCT-116 colon
# HCT-15 colon = system: HCT-15 colon
# HL-60(TB) leukemia = system: HL-60(TB) leukemia
# HOP-62 NSCLC = system: HOP-62 NSCLC
# HS 578T breast = system: HS 578T breast
# HT29 colon = system: HT29 colon
# IGROV1 ovarian = system: IGROV1 ovarian
# K-562 leukemia = system: K-562 leukemia
# KM12 colon = system: KM12 colon
# LOX IMVI melanoma = system: LOX IMVI melanoma
# M14 melanoma = system: M14 melanoma
# MALME-3M melanoma = system: MALME-3M melanoma
# MDA-MB-231 breast = system: MDA-MB-231 breast
# MDA-MB-435 = system: MDA-MB-435
# MDA-N = system: MDA-N
# NCI-H226 lung = system: NCI-H226 lung
# NCI-H23 lung = system: NCI-H23 lung
# NCI-H460 lung = system: NCI-H460 lung
# NCI-H522 lung = system: NCI-H522 lung
# NCI/ADR-RES ovarian = system: NCI/ADR-RES ovarian
# OVCAR-3 ovarian = system: OVCAR-3 ovarian
# OVCAR-4 ovarian = system: OVCAR-4 ovarian
# OVCAR-5 ovarian = system: OVCAR-5 ovarian
# OVCAR-8 ovarian = system: OVCAR-8 ovarian
# PC-3 prostate = system: PC-3 prostate
# RXF 393 renal = system: RXF 393 renal
# SF-268 CNS = system: SF-268 CNS
# SF-295 CNS = system: SF-295 CNS
# SF-539 CNS = system: SF-539 CNS
# SK-MEL-2 melanoma = system: SK-MEL-2 melanoma
# SK-MEL-28 melanoma = system: SK-MEL-28 melanoma
# SK-MEL-5 melanoma = system: SK-MEL-5 melanoma
# SK-OV-3 ovarian = system: SK-OV-3 ovarian
# SN12C renal = system: SN12C renal
# SNB-19 CNS = system: SNB-19 CNS
# SNB-75 CNS = system: SNB-75 CNS
# SW-620 colon = system: SW-620 colon
# T-47D breast = system: T-47D breast
# TK-10 renal = system: TK-10 renal
# U251 CNS = system: U251 CNS
# UACC-257 melanoma = system: UACC-257 melanoma
# UACC-62 melanoma = system: UACC-62 melanoma
# A498 renal = system: A498 renal
# COLO 205 colon = system: COLO 205 colon
# HOP-92 NSCLC = system: HOP-92 NSCLC
# MCF7 breast = system: MCF7 breast
# RPMI-8226 leukemia = system: RPMI-8226 leukemia
# SR leukemia = system: SR leukemia
# UO-31 renal = system: UO-31 renal
structure (smiles),measurement,setting,value
COc1ccc2c(c1)n([O-])c(C#N)c(N1CCN(c3ccc([N+](=O)[O-])cc3)CC1)[n+]2=O,TGI,786-0 renal,> 100 µM
same,TGI,A549 NSCLC,> 100 µM
same,TGI,ACHN renal,> 100 µM
same,TGI,BT-549 breast,> 76.7 µM
same,TGI,CAKI-1 renal,> 100 µM
same,TGI,CCRF-CEM leukemia,> 100 µM
same,TGI,DU-145 prostate,> 84.1 µM
same,TGI,EKVX NSCLC,> 100 µM
same,TGI,HCC-2998 colon,> 100 µM
same,TGI,HCT-116 colon,> 100 µM
same,TGI,HCT-15 colon,> 100 µM
same,TGI,HL-60(TB) leukemia,29.1 µM
same,TGI,HOP-62 NSCLC,> 71.4 µM
same,TGI,HS 578T breast,> 24.4 µM
same,TGI,HT29 colon,> 100 µM
same,TGI,IGROV1 ovarian,> 100 µM
same,TGI,K-562 leukemia,> 100 µM
same,TGI,KM12 colon,> 79.1 µM
same,TGI,LOX IMVI melanoma,> 28.8 µM
same,TGI,M14 melanoma,> 100 µM
same,TGI,MALME-3M melanoma,19.1 µM
same,TGI,MDA-MB-231 breast,> 100 µM
same,TGI,MDA-MB-435,97.3 µM
same,TGI,MDA-N,> 100 µM
same,TGI,NCI-H226 lung,> 100 µM
same,TGI,NCI-H23 lung,> 100 µM
same,TGI,NCI-H460 lung,> 100 µM
same,TGI,NCI-H522 lung,9.97 µM
same,TGI,NCI/ADR-RES ovarian,11.8 µM
same,TGI,OVCAR-3 ovarian,> 100 µM
same,TGI,OVCAR-4 ovarian,> 100 µM
same,TGI,OVCAR-5 ovarian,> 100 µM
same,TGI,OVCAR-8 ovarian,> 100 µM
same,TGI,PC-3 prostate,> 100 µM
same,TGI,RXF 393 renal,41.8 µM
same,TGI,SF-268 CNS,> 34.4 µM
same,TGI,SF-295 CNS,> 48.1 µM
same,TGI,SF-539 CNS,6.23 µM
same,TGI,SK-MEL-2 melanoma,> 100 µM
same,TGI,SK-MEL-28 melanoma,> 69.7 µM
same,TGI,SK-MEL-5 melanoma,19.7 µM
same,TGI,SK-OV-3 ovarian,> 59.5 µM
same,TGI,SN12C renal,> 100 µM
same,TGI,SNB-19 CNS,> 100 µM
same,TGI,SNB-75 CNS,66.2 µM
same,TGI,SW-620 colon,> 100 µM
same,TGI,T-47D breast,14.8 µM
same,TGI,TK-10 renal,> 100 µM
same,TGI,U251 CNS,> 100 µM
same,TGI,UACC-257 melanoma,> 100 µM
same,TGI,UACC-62 melanoma,> 100 µM
COP(=O)(OC)C(Cc1c[nH]c2ccccc12)NC(=O)OCc1ccccc1 (stereo not drawn),TGI,A498 renal,> 100 µM
same,TGI,A549 NSCLC,> 100 µM
same,TGI,ACHN renal,> 100 µM
same,TGI,CAKI-1 renal,> 100 µM
same,TGI,CCRF-CEM leukemia,29.2 µM
same,TGI,COLO 205 colon,> 100 µM
same,TGI,DU-145 prostate,> 100 µM
same,TGI,HCC-2998 colon,> 100 µM
same,TGI,HCT-116 colon,> 100 µM
same,TGI,HCT-15 colon,> 100 µM
same,TGI,HL-60(TB) leukemia,> 100 µM
same,TGI,HOP-62 NSCLC,> 100 µM
same,TGI,HOP-92 NSCLC,> 100 µM
same,TGI,HS 578T breast,> 100 µM
same,TGI,HT29 colon,> 100 µM
same,TGI,IGROV1 ovarian,> 100 µM
same,TGI,K-562 leukemia,> 100 µM
same,TGI,LOX IMVI melanoma,> 100 µM
same,TGI,M14 melanoma,> 100 µM
same,TGI,MCF7 breast,> 100 µM
same,TGI,MDA-MB-231 breast,> 100 µM
same,TGI,MDA-MB-435,> 100 µM
same,TGI,MDA-N,> 100 µM
same,TGI,NCI-H226 lung,> 100 µM
same,TGI,NCI-H23 lung,> 100 µM
same,TGI,NCI-H460 lung,> 100 µM
same,TGI,NCI-H522 lung,> 100 µM
same,TGI,NCI/ADR-RES ovarian,> 100 µM
same,TGI,OVCAR-3 ovarian,> 100 µM
same,TGI,OVCAR-4 ovarian,> 100 µM
same,TGI,OVCAR-5 ovarian,> 100 µM
same,TGI,OVCAR-8 ovarian,> 100 µM
same,TGI,PC-3 prostate,> 100 µM
same,TGI,RPMI-8226 leukemia,> 100 µM
same,TGI,SF-295 CNS,> 100 µM
same,TGI,SK-MEL-2 melanoma,> 100 µM
same,TGI,SK-MEL-28 melanoma,> 100 µM
same,TGI,SK-MEL-5 melanoma,> 100 µM
same,TGI,SK-OV-3 ovarian,> 100 µM
same,TGI,SN12C renal,> 100 µM
same,TGI,SNB-19 CNS,> 100 µM
same,TGI,SNB-75 CNS,> 100 µM
same,TGI,SR leukemia,> 100 µM
same,TGI,SW-620 colon,> 100 µM
same,TGI,T-47D breast,> 100 µM
same,TGI,TK-10 renal,> 100 µM
same,TGI,U251 CNS,> 100 µM
same,TGI,UACC-257 melanoma,> 100 µM
same,TGI,UO-31 renal,> 100 µM
COc1cc2cc(C(=O)N3CC(COS(C)(=O)=O)c4c3cc(N)c3ccccc43)[nH]c2c(OC)c1OC (stereo not drawn),TGI,786-0 renal,> 100 µM
same,TGI,A549 NSCLC,> 100 µM
same,TGI,ACHN renal,< 0.01 µM
same,TGI,BT-549 breast,0.25 µM
same,TGI,CAKI-1 renal,0.0928 µM
same,TGI,CCRF-CEM leukemia,> 100 µM
same,TGI,COLO 205 colon,> 100 µM
same,TGI,DU-145 prostate,< 0.01 µM
same,TGI,EKVX NSCLC,< 0.01 µM
same,TGI,HCC-2998 colon,< 0.01 µM
same,TGI,HCT-116 colon,> 100 µM
same,TGI,HL-60(TB) leukemia,> 100 µM
same,TGI,HOP-62 NSCLC,> 100 µM
same,TGI,IGROV1 ovarian,> 100 µM
same,TGI,LOX IMVI melanoma,> 100 µM
same,TGI,MCF7 breast,> 100 µM
same,TGI,MDA-MB-231 breast,< 0.01 µM
same,TGI,MDA-N,> 100 µM
same,TGI,NCI-H226 lung,0.228 µM
same,TGI,NCI-H460 lung,> 100 µM
same,TGI,OVCAR-3 ovarian,> 100 µM
same,TGI,OVCAR-5 ovarian,> 100 µM
same,TGI,PC-3 prostate,30.5 µM
same,TGI,RPMI-8226 leukemia,> 100 µM
same,TGI,RXF 393 renal,0.0377 µM
same,TGI,SF-268 CNS,> 100 µM
same,TGI,SK-MEL-2 melanoma,> 100 µM
same,TGI,SK-MEL-28 melanoma,> 100 µM
same,TGI,SK-OV-3 ovarian,1.28 µM
same,TGI,T-47D breast,> 100 µM
same,TGI,TK-10 renal,< 0.01 µM
same,TGI,UACC-257 melanoma,> 100 µM
same,TGI,UO-31 renal,> 100 µM
